This passage reports IC50 results from US20110118238A1, “2-ANILINOPURIN-8-ONES AS INHIBITORS OF TTK/MPS1 FOR THE TREATMENT OF PROLIFERATIVE DISORDERS” (ASTRAZENECA AB, priority 2007, published 2011).

SMILES strings stand for the structures.

This assay addresses T1, N-terminal GST tagged full length human TTK kinase (Homo sapiens, UniProt P33981).
T1 construct: N-terminal GST tagged full length human TTK kinase; GST (N); made in house; host or cells: insect cells
T1 sequence (P33981 1-857): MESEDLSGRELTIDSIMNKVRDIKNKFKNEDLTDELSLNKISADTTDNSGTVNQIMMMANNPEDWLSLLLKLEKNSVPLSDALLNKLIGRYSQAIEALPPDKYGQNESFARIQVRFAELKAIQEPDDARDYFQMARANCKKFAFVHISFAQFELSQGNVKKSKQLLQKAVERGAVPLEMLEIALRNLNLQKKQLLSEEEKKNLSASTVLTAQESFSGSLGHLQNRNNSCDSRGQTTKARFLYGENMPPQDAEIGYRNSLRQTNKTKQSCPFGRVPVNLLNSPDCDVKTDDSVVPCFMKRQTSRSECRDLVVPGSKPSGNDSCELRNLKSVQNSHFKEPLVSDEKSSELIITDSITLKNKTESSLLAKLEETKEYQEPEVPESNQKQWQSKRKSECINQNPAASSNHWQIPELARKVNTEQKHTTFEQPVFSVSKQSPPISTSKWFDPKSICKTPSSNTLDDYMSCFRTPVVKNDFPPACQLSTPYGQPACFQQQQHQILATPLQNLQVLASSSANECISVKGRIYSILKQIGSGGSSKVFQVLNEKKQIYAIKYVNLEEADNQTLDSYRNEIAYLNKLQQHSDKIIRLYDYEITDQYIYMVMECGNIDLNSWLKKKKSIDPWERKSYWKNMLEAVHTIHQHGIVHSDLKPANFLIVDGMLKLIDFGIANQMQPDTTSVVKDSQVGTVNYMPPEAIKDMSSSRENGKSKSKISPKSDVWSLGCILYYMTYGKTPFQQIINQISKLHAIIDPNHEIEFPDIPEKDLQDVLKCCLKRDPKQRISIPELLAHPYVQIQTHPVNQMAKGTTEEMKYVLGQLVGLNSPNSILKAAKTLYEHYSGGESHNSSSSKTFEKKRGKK
As to the kind of experiment: In Vitro TTK Kinase Assay 2 (Caliper LabChip LC3000). Format: biochemical. The note with it: recombinant TTK, 12 μM ATP, read-out: EAA2: Enzyme Assay Activity (In Vitro TTK kinase assay 2). How it is done: Each reaction was stopped by the addition of EDTA to a concentration of 40 mM in a solution which also comprised 0.1% coating reagent (Caliper LS), 100 mM HEPES pH 7.5, 0.015% v/v Brij™-35 and 5% DMSO. The stopped enzyme reactions were sipped through capillaries onto a Caliper chip where the peptide substrate and phosphorylated product were separated and detected via laser-induced fluorescence.
On to `COc1cc(C(=O)NC2CCC(N(C)C)CC2)ccc1Nc1ncc2c(n1)n(C1CCCC1)c(=O)n2C` (centres unmarked) [Example 58], for which the IC50 turned out to be 136 nM.
`COCCN1CCN(C(=O)c2ccc(Nc3ncc4c(n3)n(C3CCCC3)c(=O)n4C)c(OC)c2)CC1` [Example 57, 9-Cyclopentyl-2-[(2-methoxy-4-{[4-(2-methoxyethyl)piperazin-1-yl]-carbonyl}phenyl)amino]-7-methyl-7,9-dihydro-8H-purin-8-one]: the IC50 was determined as 35.6 nM.
Consider `Cn1c(=O)n(C2CCCC2)c2nc(Nc3ccc(C(=O)c4ccccc4)cc3)ncc21` [Example 71, 2-[(4-Benzoylphenyl)amino]-9-cyclopentyl-7-methyl-7,9-dihydro-8H-purin-8-one], for which the IC50 is 586 nM.
As for `CCN1CCN(c2ccc(Nc3ncc4c(n3)n(C(C)C)c(=O)n4C)c(OC)c2)CC1` [Example 45, 2-{[4-(4-Ethylpiperazin-1-yl)-2-methoxyphenyl]amino}-9-isopropyl-7-methyl-7,9-dihydro-8H-purin-8-one], the figure is 109 nM.
Regarding `CC(C)n1c(=O)n(C)c2cnc(Nc3ccc(C(=O)NC4CCN(C)CC4)c(F)c3)nc21` [Example 39, 2-Fluoro-4-[(9-isopropyl-7-methyl-8-oxo-8,9-dihydro-7H-purin-2-yl)-amino]-N-(1-methylpiperidin-4-yl)benzamide], the IC50 was 2460 nM.
The figure for `COc1cc(C(=O)N(C)CC2CCN(C(C)C)C2)ccc1Nc1ncc2c(n1)n(C1CCCC1)c(=O)n2C` (centres unmarked) [Example 53, 4-[(9-Cyclopentyl-7-methyl-8-oxo-8,9-dihydro-7H-purin-2-yl)-amino]-N-[(1-isopropylpyrrolidin-3-yl)methyl]-3-methoxy-N-methylbenzamide] is 231 nM; for `Cn1c(=O)n(C2CCCC2)c2nc(Nc3ccc(-c4cnco4)cc3)ncc21` [Example 76, 9-Cyclopentyl-7-methyl-2-{[4-(1,3-oxazol-5-yl)phenyl]amino}-7,9-dihydro-8H-purin-8-one] it is 18.3 nM; for `CNC(=O)c1ccc(Nc2ncc3c(n2)n(C(C)C)c(=O)n3C)c(OC)c1` [Example 41, 4-[(9-Isopropyl-7-methyl-8-oxo-8,9-dihydro-7H-purin-2-yl)amino]-3-methoxy-N-methylbenzamide] it is 7130 nM.
Take `COc1cc(C(=O)N2CC[C@@H](N(C)C)C2)ccc1Nc1ncc2c(n1)n(C1CCCC1)c(=O)n2C` [Example 55, 9-Cyclopentyl-2-[(4-{[(3R)-3-(dimethylamino)pyrrolidin-1-yl]-carbonyl}-2-methoxyphenyl)amino]-7-methyl-7,9-dihydro-8H-purin-8-one]: the IC50 worked out at 17.5 nM.
Turning to `COc1cc(C(=O)N[C@H]2CCNC2)ccc1Nc1ncc2c(n1)n(C1CCCC1)c(=O)n2C` [Example 69, 4-[(9-Cyclopentyl-7-methyl-8-oxo-8,9-dihydro-7H-purin-2-yl)-amino]-3-methoxy-N-[(3S)-pyrrolidin-3-yl]benzamide], the IC50 came out at 41.3 nM.
The figure for `Cn1c(=O)n(C2CCCC2)c2nc(Nc3ccc(Oc4ccccc4)cc3)ncc21` [Example 75, 9-Cyclopentyl-7-methyl-2-[(4-phenoxyphenyl)amino]-7,9-dihydro-8H-purin-8-one] is 523 nM; for `Cn1c(=O)n(C2CCCC2)c2nc(Nc3ccc(-n4cccn4)cc3)ncc21` [Example 79, 9-Cyclopentyl-7-methyl-2-{[4-(1H-pyrazol-1-yl)phenyl]amino}-7,9-dihydro-8H-purin-8-one] it is 45.2 nM.
On to `COc1cc(C(=O)N(C)CCCN(C)C)ccc1Nc1ncc2c(n1)n(C1CCCC1)c(=O)n2C` [Example 54, 4-[(9-Cyclopentyl-7-methyl-8-oxo-8,9-dihydro-7H-purin-2-yl)-amino]-N-[3-(dimethylamino)propyl]-3-methoxy-N-methylbenzamide], for which the IC50 came out at 36.2 nM.
Turning to `CCN1CCCC1CNC(=O)c1ccc(Nc2ncc3c(n2)n(C2CCCC2)c(=O)n3C)c(OC)c1` (centres unmarked) [Example 60, 4-[(9-Cyclopentyl-7-methyl-8-oxo-8,9-dihydro-7H-purin-2-yl)-amino]-N-[(1-ethylpyrrolidin-2-yl)methyl]-3-methoxybenzamide], the IC50 turned out to be 114 nM.
As for `COc1cc(OC2CCN(C)C2)ccc1Nc1ncc2c(n1)n(C(C)C)c(=O)n2C` (centres unmarked) [Example 43, 9-Isopropyl-2-({2-methoxy-4-[(1-methylpyrrolidin-3-yl)oxy]-phenyl}amino)-7-methyl-7,9-dihydro-8H-purin-8-one], the figure is 115 nM.
`Cn1c(=O)n(C2CCCC2)c2nc(Nc3ccc(N4CCOCC4)cc3)ncc21` [Example 80, 9-Cyclopentyl-7-methyl-2-[(4-morpholin-4-ylphenyl)amino]-7,9-dihydro-8H-purin-8-one]: the IC50 came to 140 nM.
In the case of `COc1cc(N2CCCN(C)CC2)ccc1Nc1ncc2c(n1)n(C(C)C)c(=O)n2C` [Example 48, 9-Isopropyl-2-{[2-methoxy-4-(4-methyl-1,4-diazepan-1-yl)phenyl]-amino}-7-methyl-7,9-dihydro-8H-purin-8-one], the IC50 worked out at 136 nM.
Take `Cn1c(=O)n(C2CCCC2)c2nc(Nc3ccc(CCO)cc3)ncc21` [Example 73, 9-Cyclopentyl-2-{[4-(2-hydroxyethyl)phenyl]amino}-7-methyl-7,9-dihydro-8H-purin-8-one]: the IC50 was 106 nM.
Take `Cn1c(=O)n(C2CCCC2)c2nc(Nc3ccc(N4CCOCC4)c(Cl)c3)ncc21` [Example 72, 2-[(3-Chloro-4-morpholin-4-ylphenyl)amino]-9-cyclopentyl-7-methyl-7,9-dihydro-8H-purin-8-one]: the IC50 was 27 nM.
With `COc1cc(C(=O)NCCCN(C)C)ccc1Nc1ncc2c(n1)n(C1CCCC1)c(=O)n2C` [Example 62, 4-[(9-Cyclopentyl-7-methyl-8-oxo-8,9-dihydro-7H-purin-2-yl)-amino]-N-[3-(dimethylamino)propyl]-3-methoxybenzamide], the IC50 came out at 50.9 nM.
Take `COc1cc(C(=O)N2CCN(C3CCN(C)CC3)CC2)ccc1Nc1ncc2c(n1)n(C1CCCC1)c(=O)n2C` [Example 51, 9-Cyclopentyl-2-[(2-methoxy-4-{[4-(1-methylpiperidin-4-yl)-piperazin-1-yl]-carbonyl}phenyl)amino]-7-methyl-7,9-dihydro-8H-purin-8-one]: the IC50 stood at 148 nM.
For `COc1cc(C(=O)NC2CCN(C)CC2)ccc1Nc1ncc2c(n1)n(C(C)C)c(=O)n2C` [Example 40, 4-[(9-Isopropyl-7-methyl-8-oxo-8,9-dihydro-7H-purin-2-yl)amino]-3-methoxy-N-(1-methylpiperidin-4-yl)benzamide], the IC50 turned out to be 338 nM.
As to `COc1cc(OC2CCN(C)CC2)ccc1Nc1ncc2c(n1)n(C(C)C)c(=O)n2C` [Example 42, 9-Isopropyl-2-({2-methoxy-4-[(1-methylpiperidin-4-yl)oxy]phenyl}-amino)-7-methyl-7,9-dihydro-8H-purin-8-one], the IC50 stood at 68.8 nM.
Consider `Cn1c(=O)n(C2CCCC2)c2nc(Nc3ccc(Cc4ccccc4)cc3)ncc21` [Example 78, 2-[(4-Benzylphenyl)amino]-9-cyclopentyl-7-methyl-7,9-dihydro-8H-purin-8-one], for which the IC50 turned out to be 195 nM.
For `COc1cc(C(=O)NCCN2CCN(C)CC2)ccc1Nc1ncc2c(n1)n(C1CCCC1)c(=O)n2C` [Example 64, 4-[(9-Cyclopentyl-7-methyl-8-oxo-8,9-dihydro-7H-purin-2-yl)-amino]-3-methoxy-N-[2-(4-methylpiperazin-1-yl)ethyl]benzamide], the IC50 came out at 61.1 nM.
As for `COc1cc(C(=O)NCCCn2ccnc2)ccc1Nc1ncc2c(n1)n(C1CCCC1)c(=O)n2C` [Example 52, 4-[(9-Cyclopentyl-7-methyl-8-oxo-8,9-dihydro-7H-purin-2-yl)-amino]-N-[3-(1H-imidazol-1-yl)propyl]-3-methoxybenzamide], the figure is 41.2 nM.
In the case of `COc1cc(C(=O)NCCN(C)C)ccc1Nc1ncc2c(n1)n(C1CCCC1)c(=O)n2C` [Example 67, 4-[(9-Cyclopentyl-7-methyl-8-oxo-8,9-dihydro-7H-purin-2-yl)-amino]-N-[2-(dimethylamino)ethyl]-3-methoxybenzamide], the IC50 was 119 nM.
Regarding `COc1cc(N2CCN(C)CC2)ccc1Nc1ncc2c(n1)n(C(C)C)c(=O)n2C` [Example 44, 9-Isopropyl-2-{[2-methoxy-4-(4-methylpiperazin-1-yl)phenyl]-amino}-7-methyl-7,9-dihydro-8H-purin-8-one], the IC50 was found to be 119 nM.
Consider `COc1cc(C(=O)NCCCCN2CCCC2)ccc1Nc1ncc2c(n1)n(C1CCCC1)c(=O)n2C` [Example 66, 4-[(9-Cyclopentyl-7-methyl-8-oxo-8,9-dihydro-7H-purin-2-yl)-amino]-3-methoxy-N-(4-pyrrolidin-1-ylbutyl)benzamide], for which the IC50 stood at 132 nM.
